Source: PubChem BioAssay AID2202555 (NIEHS Division of Translational Toxicology (DTT))
Results filed as inconclusive are left out. The source made the active and inactive calls. How the calls were made is not given here.

The compounds below were run on rat and mouse 2-year carcinogenicity bioassay, tumor evidence (assay: Consolidated carcinogenicity assay summary data). Conditions: Route (rodents): Dosed feed.
Text: Cancer Evaluation Criteria
The National Toxicology Program describes the results of individual experiments on a chemical agent and notes the strength of the evidence for conclusions regarding each study. […] Other organizations, such as the International Agency for Research on Cancer, assign a strength of evidence for conclusions based on an examination of all available evidence, including animal studies such as those conducted by the NTP, epidemiologic studies, and estimates of exposure. Thus, the actual determination of risk to humans from chemicals found to be carcinogenic in laboratory animals requires a wider analysis that extends beyond the purview of these studies.
Five categories of evidence of carcinogenic activity are used in the Technical Report series to summarize the strength of evidence observed in each experiment: two categories for positive results (clear evidence and some evidence); one category for uncertain findings (equivocal evidence); one category for no observable effects (no evidence); and one category for experiments that cannot be evaluated because of major flaws (inadequate study). These categories of interpretative conclusions were first adopted in June 1983 and then revised on March 1986 for use in the Technical Report series to incorporate more specifically the concept of actual weight of evidence of carcinogenic activity. For each separate experiment (male rats, female rats, male mice, female mice), one of the following five categories is selected to describe the findings. These categories refer to the strength of the experimental evidence and not to potency or mechanism.
For studies showing multiple chemical-related neoplastic effects that if considered individually would be assigned to different levels of evidence categories, the following convention has been adopted to convey completely the study results. In a study with clear evidence of carcinogenic activity at some tissue sites, other responses that alone might be deemed some evidence are indicated as "were also related" to chemical exposure. In studies with clear or some evidence of carcinogenic activity, other responses that alone might be termed equivocal evidence are indicated as "may have been" related to chemical exposure.
When a conclusion statement for a particular experiment is selected, consideration must be given to key factors that would extend the actual boundary of an individual category of evidence. Such consideration should allow for incorporation of scientific experience and current understanding of long-term carcinogenesis studies in laboratory animals, especially for those evaluations that may be on the borderline between two adjacent levels. These considerations should include:
- adequacy of the experimental design and conduct;
- occurrence of common versus uncommon neoplasia;
- progression (or lack thereof) from benign to malignant neoplasia as well as from preneoplastic to neoplastic lesions;
- some benign neoplasms have the capacity to regress but others (of the same morphologic type) progress. At present, it is impossible to identify the difference. Therefore, where progression is known to be a possibility, the most prudent course is to assume that benign neoplasms of those types have the potential to become malignant;
- combining benign and malignant tumor incidences known or thought to represent stages of progression in the same organ or tissue;
- latency in tumor induction;
- multiplicity in site -specific neoplasia;
- supporting information from proliferative lesions (hyperplasia) in the same site of neoplasia or in other experiments (same lesion in another sex or species);
- presence or absence of dose relationships;
- statistical significance of the observed tumor increase;
- concurrent control tumor incidence as well as the historical control rate and variability for a specific neoplasm;
- survival-adjusted analyses and false positive or false negative concerns;
- structure-activity correlations; and
[…]

Structure (SMILES)	carcinogen call
Nc1ccc(Cl)c(N)c1	active; clear evidence
Nc1cc(Cl)c(N)c(Cl)c1	active; no evidence
ClC(Cl)=C(c1ccc(Cl)cc1)c1ccc(Cl)cc1	active; no evidence
Nc1ccc(Cl)cc1N	active; clear evidence
Nc1ccc(Sc2ccc(N)cc2)cc1	active; clear evidence
NCCCCCCCCCCC(=O)O	active; clear evidence
Nc1ccc(N=Nc2ccc(-c3ccc(N=Nc4c(S(=O)(=O)O)cc5cc(S(=O)(=O)O)c(N=Nc6ccccc6)c(O)c5c4N)cc3)cc2)c(N)c1	active; clear evidence
O=C(c1ccccc1)c1ccccc1	active; some evidence
CCOC(=O)C(O)(c1ccc(Cl)cc1)c1ccc(Cl)cc1	active; equivocal evidence
Nc1ccccc1-c1ccccc1	active; no evidence
O=C(O)CN(CC(=O)O)CC(=O)O	active; clear evidence
ClC1=C(Cl)C2(Cl)C3C(Cl)C(Cl)CC3C1(Cl)C2(Cl)Cl (centres undefined)	active; no evidence
Oc1ccc2ccccc2c1N=Nc1ccccc1	active; clear evidence
C/C=C(/C)C(=O)O[C@H]1CCN2CC=C(COC(=O)[C@@](O)([C@@H](C)OC)C(C)(C)O)[C@H]12	active; clear evidence
ClC1(Cl)C2(Cl)C3(Cl)C4(Cl)C(Cl)(Cl)C5(Cl)C3(Cl)C1(Cl)C5(Cl)C24Cl (centres undefined)	active; clear evidence
CNC(=S)N(C)C	active; no evidence
Nc1ncc([N+](=O)[O-])s1	active; clear evidence
O=C1c2ccccc2-c2ccc3c4c(ccc1c24)-c1ccccc1C3=O	active; no evidence
COc1ccc([N+](=O)[O-])cc1N	active; clear evidence

Structure (SMILES)	carcinogen call
COc1ccc(C)cc1N	active; clear evidence
COc1ccccc1[N+](=O)[O-]	active; clear evidence
ClC1=C(Cl)[C@]2(Cl)[C@H]3[C@H]([C@@H]4C=C[C@H]3C4)[C@@]1(Cl)C2(Cl)Cl	active; equivocal evidence
O=C1C2CC=CCC2C(=O)N1SC(Cl)(Cl)Cl (centres undefined)	active; no evidence
CCCN(CCC)c1c([N+](=O)[O-])cc(C(F)(F)F)cc1[N+](=O)[O-]	active; no evidence
Oc1c(Cl)c(Cl)c(Cl)c(Cl)c1Cl	active; some evidence
Nc1ccccc1	active; clear evidence
C[C@H]1CCCC(=O)CCC/C=C/c2cc(O)cc(O)c2C(=O)O1	active; no evidence
CCCCC(CC)COC(=O)CCCCC(=O)OCC(CC)CCCC (centres undefined)	active; no evidence
Cc1ccccc1[N+](=O)[O-]	active; clear evidence
CCNC(=O)Nc1ncc([N+](=O)[O-])s1	active; no evidence
O=[N+]([O-])c1ccc(Oc2ccc(Cl)cc2Cl)cc1	active; no evidence
O=C1C2(Cl)C3(Cl)C4(Cl)C(Cl)(Cl)C5(Cl)C3(Cl)C1(Cl)C5(Cl)C24Cl (centres undefined)	active; clear evidence
Brc1c(Br)c(Br)c(Oc2c(Br)c(Br)c(Br)c(Br)c2Br)c(Br)c1Br	active; some evidence
CCC1(c2ccccc2)C(=O)NCNC1=O	active; equivocal evidence
COc1cc(-c2ccc(N=C=O)c(OC)c2)ccc1N=C=O	active; clear evidence
O=C1Nc2ccc(Cl)cc2C(c2ccccc2)=NC1O (centres undefined)	active; equivocal evidence
NS(=O)(=O)c1cc(C(=O)O)c(NCc2ccco2)cc1Cl	active; equivocal evidence

Same assay, conditions: Route (rodents): Dosed water

Structure (SMILES)	carcinogen call
Nc1ccc(Cc2ccc(N)cc2)cc1	active; clear evidence
CC(C)(C)O	active; some evidence
COc1cc(-c2ccc(N=Nc3c(S(=O)(=O)O)cc4cc(S(=O)(=O)O)cc(N)c4c3O)c(OC)c2)ccc1N=Nc1c(S(=O)(=O)O)cc2cc(S(=O)(=O)O)cc(N)c2c1O	active; clear evidence
C=CC(N)=O	active; clear evidence
Cc1cccnc1	active; no evidence

Same assay, conditions: Route (rodents): Gavage

Structure (SMILES)	carcinogen call
c1ccc2occc2c1	active; no evidence
Clc1ccc(N=Nc2ccc(Cl)c(Cl)c2)cc1Cl	active; clear evidence
